Test results published in patent publication US12202835B2, “Substituted aromatic ring-linked dioxinoquinazolines and dioxinoquinolines as kinase inhibitors” (BEIJING SCITECH-MQ PHARMACEUTICALS LIMITED, priority 2018, dated 2025).
Blank lines part the entries; values can stand above or below the compound they belong to.

Experiments:
[1] = test system: Ba/F3-AXL cells; test: Assay for inhibiting the proliferation of Ba/F3-AXL cells (CCK-8); assay type: cell-based; conditions: 72 hours of incubation, medium with 100 ng/mL hGas6, CCK-8
Description: The values were then imported into Graphpad Prism 5 software for curve fitting, and IC50 was calculated.

[2] = target: TRKA kinase (Homo sapiens (Human), UniProt P04629); test: Assay of small molecular compounds for inhibiting the activity of TRKA kinase (LANCE TR-FRET); assay type: biochemical
In short: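 LANCE TR-FRET with ULight-TK peptide; compounds pre-incubated 5 min with TRKA (2× solution 2 nM), then substrate/ATP added (4× mix: 400 nM peptide, 40 μM ATP). Reaction 60 min at room temperature in dark, 1% DMSO final; stopped, detection developed 60 min, signal read.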

[3] = test system: Ba/F3 LMNA-NTRK1 cells; test: Assay for inhibiting the proliferation of Ba/F3 LMNA-NTRK1 cells (CCK-8); assay type: cell-based; conditions: Mus musculus, BaF3
In short: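 Cells were seeded and cultured overnight, then treated with graded compound concentrations (final DMSO 0.25%) for 72 h. CCK-8 was added for 1–2 h at 37 °C and OD450 read. Survival was normalised to untreated and cell-free blank wells, and IC50 was fitted.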

[4] = test system: EBC1 cells; test: Assay for inhibiting the proliferation of EBC1 cells (CCK-8); assay type: cell-based; conditions: Homo sapiens, EBC-1
In short: (§1)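 Cells seeded in 96-well plates overnight, then exposed 72 h to 9 three-fold dilutions of compound (0.25% DMSO final). Viability by CCK-8 (1-2 h at 37° C., OD 450 nm), survival normalized to untreated and cell-free blanks; IC50 by curve fitting.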

[5] = test system: MHCC97H cells; test: Assay for inhibiting the proliferation of MHCC97H cells (CCK-8); assay type: cell-based; conditions: Homo sapiens
In short: as §1

TRKA kinase, sequence (P04629 33-796): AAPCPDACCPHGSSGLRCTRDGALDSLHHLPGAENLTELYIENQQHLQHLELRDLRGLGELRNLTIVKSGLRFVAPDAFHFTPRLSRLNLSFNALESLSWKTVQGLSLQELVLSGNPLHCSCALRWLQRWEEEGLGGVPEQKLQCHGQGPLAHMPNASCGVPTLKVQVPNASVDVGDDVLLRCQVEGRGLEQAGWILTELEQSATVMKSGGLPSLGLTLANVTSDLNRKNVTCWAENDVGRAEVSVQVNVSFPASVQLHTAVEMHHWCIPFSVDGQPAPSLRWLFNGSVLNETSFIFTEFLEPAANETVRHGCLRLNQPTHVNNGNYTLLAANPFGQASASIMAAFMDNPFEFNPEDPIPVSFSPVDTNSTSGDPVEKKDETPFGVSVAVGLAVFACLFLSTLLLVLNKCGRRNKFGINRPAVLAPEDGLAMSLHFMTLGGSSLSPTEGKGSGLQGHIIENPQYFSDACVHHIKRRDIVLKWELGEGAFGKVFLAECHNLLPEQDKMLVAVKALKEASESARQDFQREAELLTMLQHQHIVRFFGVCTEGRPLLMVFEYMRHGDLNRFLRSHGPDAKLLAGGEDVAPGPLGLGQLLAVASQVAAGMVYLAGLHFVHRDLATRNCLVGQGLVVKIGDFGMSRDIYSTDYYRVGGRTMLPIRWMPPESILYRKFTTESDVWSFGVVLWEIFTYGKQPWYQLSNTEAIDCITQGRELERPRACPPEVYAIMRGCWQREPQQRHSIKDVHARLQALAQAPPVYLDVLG

SMILES: COCCn1cc(C(=O)Nc2ccc(Oc3ccnc4cc(OC)c5c(c34)OCCO5)c(F)c2)c(=O)n(-c2ccc(F)cc2)c1=O [Example 46, N-(3-fluoro-4-((5-methoxy-2,3-dihydro-[1,4]dioxino[2,3-f]quinolin-10-yl)oxy)phenyl)-3-(4-fluorophenyl)-1-(2-methoxyethyl)-2,4-dioxo-1,2,3,4-tetrahydropyrimidine-5-carboxamide]
IC50 [1]: < 50 nM
IC50 [2]: 50 to 500 nM
IC50 [3]: < 50 nM
IC50 [4]: ≤ 50 nM
IC50 [5]: ≤ 50 nM

SMILES: CCOc1ccn(-c2ccc(F)cc2)c(=O)c1C(=O)Nc1ccc(Oc2ccnc3cc(OCCCC#N)c4c(c23)OCCO4)c(F)c1 [Example 57, N-(4-((5-(3-cyanopropoxy)-2,3-dihydro-[1,4]dioxino[2,3-f]quinolin-10-yl)oxy)-3-fluorophenyl)-4-ethoxy-1-(4-fluorophenyl)-2-oxo-1,2-dihydropyridine-3-carboxamide]
IC50 [1]: < 50 nM
IC50 [2]: < 50 nM
IC50 [3]: < 50 nM
IC50 [4]: ≤ 50 nM
IC50 [5]: ≤ 50 nM

SMILES: CCOc1ccn(-c2ccc(F)cc2)c(=O)c1C(=O)Nc1ccc(Oc2ccnc3cc(OCCCN4CCN(C(C)=O)CC4)c4c(c23)OCCO4)c(F)c1 [Example 50, N-(4-((5-(3-(4-acetyl-piperazin-1-yl)propoxy)-2,3-dihydro-[1,4]dioxino[2,3-f]quinolin-10-yl)oxy)-3-fluorophenyl)-4-ethoxy-1-(4-fluorophenyl)-2-oxo-1,2-dihydropyridine-3-carboxamide]
IC50 [1]: < 50 nM
IC50 [2]: < 50 nM
IC50 [3]: < 50 nM
IC50 [4]: ≤ 50 nM
IC50 [5]: ≤ 50 nM

SMILES: CCOc1ccn(-c2ccc(F)cc2)c(=O)c1C(=O)Nc1ccc(Oc2ccnc3cc(OCCCN4CCN(C)CC4)c4c(c23)OCCO4)c(F)c1 [Example 49, N-(3-fluoro-4-((5-(3-(4-methylpiperazin-1-yl)propoxy)-2,3-dihydro-[1,4]dioxino[2,3-f]quinolin-10-yl)oxy)phenyl)-1-(4-fluorophenyl)-4-ethoxy-2-oxo-1,2-dihydropyridine-3-carboxamide]
IC50 [1]: < 50 nM
IC50 [2]: < 50 nM
IC50 [3]: < 50 nM
IC50 [4]: ≤ 50 nM
IC50 [5]: ≤ 50 nM

SMILES: CCOc1ccn(-c2ccc(F)cc2)c(=O)c1C(=O)Nc1ccc(Oc2ccnc3cc(OCC#N)c4c(c23)OCCO4)c(F)c1 [Example 56, N-(4-((5-(cyanomethoxy)-2,3-dihydro-[1,4]dioxino[2,3-f]quinolin-10-yl)oxy)-3-fluorophenyl)-4-ethoxy-1-(4-fluorophenyl)-2-oxo-1,2-dihydropyridine-3-carboxamide]
IC50 [1]: < 50 nM
IC50 [2]: < 50 nM
IC50 [3]: < 50 nM
IC50 [4]: ≤ 50 nM
IC50 [5]: ≤ 50 nM

SMILES: CCOc1ccn(-c2ccc(F)cc2)c(=O)c1C(=O)Nc1ccc(Oc2ccnc3cc(OCCCN4CCC(C)(C)CC4)c4c(c23)OCCO4)c(F)c1 [Example 67, N-(4-((5-(3-(4,4-dimethylpiperidin-1-yl)propoxy)-2,3-dihydro-[1,4]dioxino[2,3-f]quinolin-10-yl)oxy)-3-fluorophenyl)-4-ethoxy-1-(4-fluorophenyl)-2-oxo-1,2-dihydropyridine-3-carboxamide]
IC50 [1]: < 50 nM
IC50 [2]: < 50 nM
IC50 [3]: < 50 nM
IC50 [4]: ≤ 50 nM
IC50 [5]: ≤ 50 nM

SMILES: CCOc1ccn(-c2ccc(F)cc2)c(=O)c1C(=O)Nc1ccc(Oc2ccnc3cc(OCCCN4CCC(C)(N)CC4)c4c(c23)OCCO4)c(F)c1 [Example 68, N-(4-((5-(3-(4-amino-4-methylpiperidin-1-yl)propoxy)-2,3-dihydro-[1,4]dioxino[2,3-f]quinolin-10-yl)oxy)-3-fluorophenyl)-4-ethoxy-1-(4-fluorophenyl)-2-oxo-1,2-dihydropyridine-3-carboxamide]
IC50 [1]: < 50 nM
IC50 [2]: < 50 nM
IC50 [3]: 200 to 1000 nM
IC50 [4]: ≤ 50 nM
IC50 [5]: 200 to 1000 nM

SMILES: CCOc1ccn(-c2ccc(F)cc2)c(=O)c1C(=O)Nc1ccc(Oc2ccnc3cc(OC4COC4)c4c(c23)OCCO4)c(F)c1 [Example 64, N-(4-((5-((oxetan-3-yl)oxy)-2,3-dihydro-[1,4]dioxino[2,3-f]quinolin-10-yl)oxy)-3-fluorophenyl)-4-ethoxy-1-(4-fluorophenyl)-2-oxo-1,2-dihydropyridine-3-carboxamide]
IC50 [1]: < 50 nM
IC50 [2]: < 50 nM
IC50 [3]: 50 to 200 nM
IC50 [4]: 50 to 200 nM
IC50 [5]: 50 to 200 nM

SMILES: CCOc1ccn(-c2ccc(F)cc2)c(=O)c1C(=O)Nc1ccc(Oc2ccnc3cc(OCCCN(C)C4CCC4)c4c(c23)OCCO4)c(F)c1 [Example 71, N-(4-((5-(3-(cyclobutyl(methyl)amino)propoxy)-2,3-dihydro-[1,4]dioxino[2,3-f]quinolin-10-yl)oxy)-3-fluorophenyl)-4-ethoxy-1-(4-fluorophenyl)-2-oxo-1,2-dihydropyridine-3-carboxamide]
IC50 [1]: < 50 nM
IC50 [2]: < 50 nM
IC50 [3]: < 50 nM
IC50 [4]: ≤ 50 nM
IC50 [5]: ≤ 50 nM

SMILES: COc1cc2ncnc(Oc3ccc(NC(=O)c4cccn(-c5ccc(F)cc5)c4=O)cc3F)c2c2c1OCCO2 [Example 1, N-(3-fluoro-4-((5-methoxy-2,3-dihydro-[1,4]dioxino[2,3-f]quinazolin-10-yl)oxy)phenyl)-1-(4-fluorophenyl)-2-oxo-1,2-dihydropyridine-3-carboxamide]
IC50 [1]: < 50 nM
IC50 [2]: < 50 nM
IC50 [4]: 50 to 200 nM
IC50 [5]: ≤ 50 nM

SMILES: CCOc1ccn(-c2ccc(F)cc2)c(=O)c1C(=O)Nc1ccc(Oc2ccnc3cc(OC(C)C)c4c(c23)OCCO4)c(F)c1 [Example 63, N-(4-((5-isopropoxy-2,3-dihydro-[1,4]dioxino[2,3-f]quinolin-10-yl)oxy)-3-fluorophenyl)-4-ethoxy-1-(4-fluorophenyl)-2-oxo-1,2-dihydropyridine-3-carboxamide]
IC50 [1]: < 50 nM
IC50 [2]: 50 to 500 nM
IC50 [4]: ≤ 50 nM
IC50 [5]: 50 to 200 nM

Second part, led by results:

IC50 [1]: < 50 nM
IC50 [2]: < 50 nM
IC50 [3]: < 50 nM
SMILES: CCOc1ccn(-c2ccc(F)cc2)c(=O)c1C(=O)Nc1ccc(Oc2ccnc3cc(OCCCN4CCOCC4)c4c(c23)OCCO4)c(Cl)c1 [Example 72, N-(4-((5-(3-morpholinopropoxy)-2,3-dihydro-[1,4]dioxino[2,3-f]quinolin-10-yl)oxy)-3-chlorophenyl)-4-ethoxy-1-(4-fluorophenyl)-2-oxo-1,2-dihydropyridine-3-carboxamide]
IC50 [4]: ≤ 50 nM
IC50 [5]: ≤ 50 nM

IC50 [1]: < 50 nM
IC50 [2]: < 50 nM
IC50 [3]: < 50 nM
SMILES: CCOc1ccn(-c2ccc(F)cc2)c(=O)c1C(=O)Nc1ccc(Oc2ccnc3cc(OCCCO)c4c(c23)OCCO4)c(F)c1 [Example 54, N-(4-((5-(3-hydroxypropoxy)-2,3-dihydro-[1,4]dioxino[2,3-f]quinolin-10-yl)oxy)-3-fluorophenyl)-4-ethoxy-1-(4-fluorophenyl)-2-oxo-1,2-dihydropyridine-3-carboxamide]
IC50 [4]: ≤ 50 nM
IC50 [5]: ≤ 50 nM

IC50 [1]: < 50 nM
IC50 [2]: < 50 nM
IC50 [3]: < 50 nM
SMILES: CCOc1cc2nccc(Oc3ccc(NC(=O)c4c(OCC)ccn(-c5ccc(F)cc5)c4=O)cc3F)c2c2c1OCCO2 [Example 62, N-(4-((5-ethoxy-2,3-dihydro-[1,4]dioxino[2,3-f]quinolin-10-yl)oxy)-3-fluorophenyl)-4-ethoxy-1-(4-fluorophenyl)-2-oxo-1,2-dihydropyridine-3-carboxamide]
IC50 [4]: ≤ 50 nM
IC50 [5]: ≤ 50 nM

IC50 [1]: < 50 nM
IC50 [2]: < 50 nM
IC50 [3]: < 50 nM
SMILES: CCOc1ccn(-c2ccc(F)cc2)c(=O)c1C(=O)Nc1ccc(Oc2ccnc3cc(OCCCN(C)CCOC)c4c(c23)OCCO4)c(F)c1 [Example 70, N-(4-((5-(3-((2-methoxyethyl)(methyl)amino)propoxy)-2,3-dihydro-[1,4]dioxino[2,3-f]quinolin-10-yl)oxy)-3-fluorophenyl)-4-ethoxy-1-(4-fluorophenyl)-2-oxo-1,2-dihydropyridine-3-carboxamide]
IC50 [4]: ≤ 50 nM
IC50 [5]: ≤ 50 nM

IC50 [1]: < 50 nM
IC50 [2]: < 50 nM
IC50 [3]: < 50 nM
SMILES: CN1CCN(CCCOc2cc3nccc(Oc4ccc(NC(=O)c5cn(C)c(=O)n(-c6ccc(F)cc6)c5=O)cc4F)c3c3c2OCCO3)CC1 [Example 74, N-(3-fluoro-4-((5-(3-(4-methylpiperazin-1-yl)propoxy)-2,3-dihydro-[1,4]dioxino[2,3-f]quinolin-10-yl)oxy)phenyl)-3-(4-fluorophenyl)-1-methyl-2,4-dioxo-1,2,3,4-tetrahydropyrimidine-5-carboxamide]
IC50 [4]: ≤ 50 nM
IC50 [5]: 50 to 200 nM

IC50 [1]: < 50 nM
IC50 [2]: < 50 nM
IC50 [3]: 50 to 200 nM
SMILES: CCOc1ccn(-c2ccc(F)cc2)c(=O)c1C(=O)Nc1ccc(Oc2ccnc3cc(OC4CCOC4)c4c(c23)OCCO4)c(F)c1 (centres unmarked) [Example 65, N-(4-((5-((tetrahydrofuran-3-yl)oxy)-2,3-dihydro-[1,4]dioxino[2,3-f]quinolin-10-yl)oxy)-3-fluorophenyl)-4-ethoxy-1-(4-fluorophenyl)-2-oxo-1,2-dihydropyridine-3-carboxamide]
IC50 [4]: ≤ 50 nM
IC50 [5]: ≤ 50 nM
